Test results from ChEMBL document CHEMBL1955862, “Novel N'-benzylidene benzofuran-3-carbohydrazide derivatives as antitubercular and antifungal agents” (2012).
Converted amounts (≈) assume the structure as drawn.

How the values were obtained:
Candida albicans = assay: Antifungal activity against Candida albicans; assay type: functional
[1] = test system: Mycobacterium tuberculosis; assay: Antituberculosis activity against Mycobacterium tuberculosis H37Rv by REMA method; assay type: functional

## O=C(N/N=C/c1ccc(O)cc1)c1coc2c(Cl)cc(Cl)cc12
Candida albicans
  MIC: > 250 µg/mL
[1]
  MIC: 128 µg/mL (≈ 367 µM)

## O=C(N/N=C/c1ccc(O)cc1)c1coc2ccccc12
Candida albicans
  MIC: > 250 µg/mL
[1]
  MIC: 64 µg/mL (≈ 228 µM)

## O=C(N/N=C/c1c(Cl)cccc1Cl)c1coc2ccccc12
Candida albicans
  MIC: > 250 µg/mL
[1]
  MIC: 128 µg/mL (≈ 384 µM)

## O=C(N/N=C/c1cccc2ccccc12)c1coc2ccccc12
Candida albicans
  MIC: 125 µg/mL (≈ 398 µM)
[1]
  MIC: 128 µg/mL (≈ 407 µM)

## Cc1ccc(/C=N/NC(=O)c2coc3c(Cl)cc(Cl)cc23)cc1
Candida albicans
  MIC: < 15.6 µg/mL
[1]
  MIC: 128 µg/mL (≈ 369 µM)

## NNC(=O)c1ccncc1 [ISONIAZID]
[1]
  MIC: 0.25 µg/mL (≈ 1.82 µM)

## O=C(N/N=C/c1ccccc1)c1coc2ccccc12
Candida albicans
  MIC: > 250 µg/mL
[1]
  MIC: 2 µg/mL (≈ 7.57 µM)

## O=C(N/N=C/c1ccccc1O)c1coc2ccccc12
Candida albicans
  MIC: > 250 µg/mL
[1]
  MIC: 64 µg/mL (≈ 228 µM)

## COc1ccc(/C=N/NC(=O)c2coc3c(Cl)cc(Cl)cc23)c(OC)c1
Candida albicans
  MIC: > 250 µg/mL
[1]
  MIC: 64 µg/mL (≈ 163 µM)

## O=C(N/N=C/c1ccc(Cl)cc1)c1coc2ccccc12
Candida albicans
  MIC: > 250 µg/mL
[1]
  MIC: 128 µg/mL (≈ 428 µM)

## O=C(N/N=C/c1cc(Cl)cc(Cl)c1O)c1coc2c(Cl)cc(Cl)cc12
Candida albicans
  MIC: 250 µg/mL (≈ 598 µM)
[1]
  MIC: 128 µg/mL (≈ 306 µM)

## O=C(N/N=C/c1cc(Cl)cc(Cl)c1O)c1coc2ccccc12
Candida albicans
  MIC: 31.2 µg/mL (≈ 89.5 µM)
[1]
  MIC: 128 µg/mL (≈ 367 µM)

## O=C(N/N=C/c1ccc([N+](=O)[O-])cc1)c1coc2ccccc12
Candida albicans
  MIC: > 250 µg/mL
[1]
  MIC: 128 µg/mL (≈ 414 µM)

## COc1ccc(/C=N/NC(=O)c2coc3ccccc23)c(OC)c1
Candida albicans
  MIC: > 250 µg/mL
[1]
  MIC: 128 µg/mL (≈ 395 µM)

## O=C(N/N=C/c1ccccc1O)c1coc2c(Cl)cc(Cl)cc12
Candida albicans
  MIC: > 250 µg/mL
[1]
  MIC: 32 µg/mL (≈ 91.6 µM)

## O=C(N/N=C/c1cccc2ccccc12)c1coc2c(Cl)cc(Cl)cc12
Candida albicans
  MIC: < 15.6 µg/mL
[1]
  MIC: 128 µg/mL (≈ 334 µM)

## O=C(N/N=C/c1c(Cl)cccc1Cl)c1coc2c(Cl)cc(Cl)cc12
Candida albicans
  MIC: 62.5 µg/mL (≈ 155 µM)
[1]
  MIC: 128 µg/mL (≈ 318 µM)

## Cc1ccc(/C=N/NC(=O)c2coc3ccccc23)cc1
Candida albicans
  MIC: > 250 µg/mL
[1]
  MIC: 128 µg/mL (≈ 460 µM)

## O=C(N/N=C/c1ccccc1)c1coc2c(Cl)cc(Cl)cc12
Candida albicans
  MIC: > 250 µg/mL
[1]
  MIC: 2 µg/mL (≈ 6 µM)

## O=C(N/N=C/c1ccc([N+](=O)[O-])cc1)c1coc2c(Cl)cc(Cl)cc12
Candida albicans
  MIC: 125 µg/mL (≈ 331 µM)
[1]
  MIC: 128 µg/mL (≈ 338 µM)

## O=C(N/N=C/c1ccc(Cl)cc1)c1coc2c(Cl)cc(Cl)cc12
Candida albicans
  MIC: > 250 µg/mL
[1]
  MIC: 128 µg/mL (≈ 348 µM)
